# Data taken from patent publication US20260364184A1, “COMPOUND BASED ON OXOISOINDOLINYL-SUBSTITUTED TETRAHYDROPYRIMIDINE-DIONE AND USE THEREOF” (GLUETACS THERAPEUTICS (SHANGHAI) CO., LTD., priority 2023, published 2026).
# Tests used:
# Type in all cases: cell-based
# ALK = molecular target: T1, ALK (Homo sapiens, UniProt Q9UM73); test: Western blot degradation of ALK; details: H2228 Cell; 24 hours
# T1 construct: known EML4-ALK variant 3 fusion, ALK kinase part unmutated), Western blot
# Procedure: (§1) Conventional Western blot assay was performed to evaluate the effects of the compounds of the present disclosure on the expression of target proteins in cells.
# (§2) (1) Cell Seeding and Protein Harvesting: The selected cells were processed according to the cell seeding procedure and protein harvesting procedure in Table II-2.
# (§3) (2) To the collected supernatant, 5×SDS sample loading buffer was added, followed by denaturation at 95 °C for 5 minutes. The denatured samples were then separated by SDS-PAGE electrophoresis on a polyacrylamide gel. Proteins were transferred to a nitrocellulose membrane (0.45 μm NC membrane), blocked with blocking buffer at room temperature for 1 hour, and subjected to antibody incubation and development procedures according to the antibody manufacturer's instructions (Cell Signaling Technology).
# (§4) Half-Maximal Degradation Concentration value (the drug concentration required for degrading proteins by 50%, abbreviated as DC50) reads method: comparing the grayscale values of Western blot bands from drug-treated samples with those from blank DMSO-treated controls, and identifying the drug concentration range at which the grayscale value is half that of the DMSO-treated control bands.
# (§5) DC50 values can be calculated using ImageJ software to measure grayscale values of Western blot bands from drug-treated samples. The concentration-response curve is fitted to estimate the drug concentration corresponding to half the grayscale value.
# (§6) Target protein remaining (%) refers to the percentage of target protein remaining in cells after treatment with protein degrader compounds.
# (§7) Calculation method for target protein remaining (%): Use ImageJ software to measure grayscale values of Western blot bands from drug (protein degrader)-treated samples. The grayscale value of drug-treated bands is divided by that of internal control protein bands, and the resulting quotient is normalized to obtain the relative percentage of remaining target protein after protein degrader treatment.
# (§8) Target protein degradation rate (%)=1−target protein remaining (%).
# [1] = system: Human T lymphocytic leukemia cell line (Jurkat); test: Inhibition of Jurkat cell proliferation (CellTiter luminescent viability); details: Homo sapiens, Table IF3, AR inhibitor-based, 96 hours; for inhibition at 0.01 µM: 10 nM, read-out: Inhibition Rate at 10 nM (%); for inhibition at 0.5 µM: 500 nM, read-out: Inhibition Rate at 500 nM (%)
# Procedure: The tumor cells used herein were cultured in a cell culture medium listed in table 3 at 37 °C in an incubator with 5% CO2. Prior to experimentation, all cell lines used were correctly identified by STR profiling, and tested negative for mycoplasma contamination using a mycoplasma detection kit through routine screenings.
# The IC50 values of the compounds of the present disclosure (including the compounds in Table 1, Table 2, and Examples 1-468) were determined using the CellTiter-Meiluncell Luminescent Cell Viability Assay Kit from Dalian Meilun Biotech Co., Ltd. The detailed procedure is as follows: Tumor cells were seeded in 96-well cell culture plates at the densities specified in Table 4. On the following day, the test compounds of the present disclosure were subjected to serial dilution. The dilution can be performed according to one of the following two methods: • (1) The first dilution method: The test compounds of the present disclosure (including the compounds in Table 1, Table 2, and Examples 1-468) were subjected to 5-fold serial dilutions starting from a highest concentration of 2000 μM, resulting in a total of 9 concentrations from high to low (2000, 400, 80, 16, 3.2, 0.64, 0.128, 0.0256, 0.00512 μM). Subsequently, 0.5 μL of the test compound dilution was transferred into the 96-well plate containing the cells, with each well containing 100 μL of cell culture medium. […] Into the 96-well plate, the diluted test compounds and corresponding detection reagents were added, resulting in final test compound concentrations of 500 nM and 10 nM, respectively. The experimental procedure is described below using the diluted 2 μM test compound as an example.
# 0.5 μL of the aforementioned diluted compound of the present disclosure (including the compounds in Table 1, Table 2, and Examples 1-468) was added to the seeded cells in 100 μL of medium, yielding a final test compound concentration of 10 nM. After the cells were treated with the compounds of the present disclosure for a specified period, the cell viability assay reagent was added to the culture medium according to the kit's instructions to determine cell viability. […] All controls were treated using the same procedure as the compounds of the present disclosure. The growth inhibition curves for the compounds of the present disclosure were plotted using Prism GraphPad software, and the IC50 values were calculated therefrom.
# [2] = system: Human acute lymphocytic leukemia T lymphocytes cell line (CCRF-CEM); test: Inhibition of CCRF-CEM cell proliferation (CellTiter luminescent viability); details: Table IF2, AR inhibitor-based; for inhibition at 0.01 µM / inhibition at 0.5 µM: Homo sapiens, 96 h; for inhibition at 0.01 µM: read-out: Inhibition Rate at 10 nM (%); for inhibition at 0.5 µM: 500 nM, read-out: Inhibition Rate at 500 nM (%)
# [3] = system: Human diffuse large B-cell lymphoma cell line (TMD8); test: Inhibition of TMD8 cell proliferation (CellTiter luminescent viability); details: Table IF1, AR inhibitor-based; for inhibition at 0.01 µM / inhibition at 0.5 µM: Homo sapiens, TMD8, 96 h; for inhibition at 0.01 µM: read-out: Inhibition Rate at 10 nM (%); for inhibition at 0.5 µM: TMD8, 500 nM, read-out: Inhibition Rate at 500 nM (%)
# AR = molecular target: T2, AR (Homo sapiens, UniProt P10275); test: Western blot degradation of AR; details: LnCap Cell; 24 hours
# T2 construct: expression of target proteins in cells; endogenous in cells
# T2 sequence (P10275 1-920): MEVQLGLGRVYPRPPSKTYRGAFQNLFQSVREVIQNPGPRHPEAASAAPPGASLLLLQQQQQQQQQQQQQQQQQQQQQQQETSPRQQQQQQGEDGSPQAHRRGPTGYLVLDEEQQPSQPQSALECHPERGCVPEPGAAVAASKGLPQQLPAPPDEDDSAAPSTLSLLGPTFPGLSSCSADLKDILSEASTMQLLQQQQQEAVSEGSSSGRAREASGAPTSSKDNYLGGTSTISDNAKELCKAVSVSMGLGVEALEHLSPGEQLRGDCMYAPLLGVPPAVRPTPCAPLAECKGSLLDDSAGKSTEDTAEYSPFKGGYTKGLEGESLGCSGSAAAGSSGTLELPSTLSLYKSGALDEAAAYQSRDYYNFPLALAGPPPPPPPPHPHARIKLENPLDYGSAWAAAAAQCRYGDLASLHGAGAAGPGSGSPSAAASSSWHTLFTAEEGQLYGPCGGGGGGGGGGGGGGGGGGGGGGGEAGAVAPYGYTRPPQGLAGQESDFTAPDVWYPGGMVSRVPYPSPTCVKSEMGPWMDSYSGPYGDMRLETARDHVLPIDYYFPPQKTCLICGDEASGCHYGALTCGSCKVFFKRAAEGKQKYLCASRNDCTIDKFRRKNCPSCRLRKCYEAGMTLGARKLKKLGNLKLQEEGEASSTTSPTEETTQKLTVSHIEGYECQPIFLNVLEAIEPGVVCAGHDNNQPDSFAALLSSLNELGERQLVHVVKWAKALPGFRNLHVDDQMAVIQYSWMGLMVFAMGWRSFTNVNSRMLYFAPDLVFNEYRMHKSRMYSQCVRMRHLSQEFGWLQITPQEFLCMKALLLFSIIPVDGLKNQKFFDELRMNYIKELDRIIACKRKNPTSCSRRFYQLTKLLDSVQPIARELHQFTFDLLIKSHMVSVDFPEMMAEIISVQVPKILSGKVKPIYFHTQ
# Procedure: as §1, §2, §3, §4, §5, §6, §7, §8
# T1 sequence (Q9UM73 19-1620): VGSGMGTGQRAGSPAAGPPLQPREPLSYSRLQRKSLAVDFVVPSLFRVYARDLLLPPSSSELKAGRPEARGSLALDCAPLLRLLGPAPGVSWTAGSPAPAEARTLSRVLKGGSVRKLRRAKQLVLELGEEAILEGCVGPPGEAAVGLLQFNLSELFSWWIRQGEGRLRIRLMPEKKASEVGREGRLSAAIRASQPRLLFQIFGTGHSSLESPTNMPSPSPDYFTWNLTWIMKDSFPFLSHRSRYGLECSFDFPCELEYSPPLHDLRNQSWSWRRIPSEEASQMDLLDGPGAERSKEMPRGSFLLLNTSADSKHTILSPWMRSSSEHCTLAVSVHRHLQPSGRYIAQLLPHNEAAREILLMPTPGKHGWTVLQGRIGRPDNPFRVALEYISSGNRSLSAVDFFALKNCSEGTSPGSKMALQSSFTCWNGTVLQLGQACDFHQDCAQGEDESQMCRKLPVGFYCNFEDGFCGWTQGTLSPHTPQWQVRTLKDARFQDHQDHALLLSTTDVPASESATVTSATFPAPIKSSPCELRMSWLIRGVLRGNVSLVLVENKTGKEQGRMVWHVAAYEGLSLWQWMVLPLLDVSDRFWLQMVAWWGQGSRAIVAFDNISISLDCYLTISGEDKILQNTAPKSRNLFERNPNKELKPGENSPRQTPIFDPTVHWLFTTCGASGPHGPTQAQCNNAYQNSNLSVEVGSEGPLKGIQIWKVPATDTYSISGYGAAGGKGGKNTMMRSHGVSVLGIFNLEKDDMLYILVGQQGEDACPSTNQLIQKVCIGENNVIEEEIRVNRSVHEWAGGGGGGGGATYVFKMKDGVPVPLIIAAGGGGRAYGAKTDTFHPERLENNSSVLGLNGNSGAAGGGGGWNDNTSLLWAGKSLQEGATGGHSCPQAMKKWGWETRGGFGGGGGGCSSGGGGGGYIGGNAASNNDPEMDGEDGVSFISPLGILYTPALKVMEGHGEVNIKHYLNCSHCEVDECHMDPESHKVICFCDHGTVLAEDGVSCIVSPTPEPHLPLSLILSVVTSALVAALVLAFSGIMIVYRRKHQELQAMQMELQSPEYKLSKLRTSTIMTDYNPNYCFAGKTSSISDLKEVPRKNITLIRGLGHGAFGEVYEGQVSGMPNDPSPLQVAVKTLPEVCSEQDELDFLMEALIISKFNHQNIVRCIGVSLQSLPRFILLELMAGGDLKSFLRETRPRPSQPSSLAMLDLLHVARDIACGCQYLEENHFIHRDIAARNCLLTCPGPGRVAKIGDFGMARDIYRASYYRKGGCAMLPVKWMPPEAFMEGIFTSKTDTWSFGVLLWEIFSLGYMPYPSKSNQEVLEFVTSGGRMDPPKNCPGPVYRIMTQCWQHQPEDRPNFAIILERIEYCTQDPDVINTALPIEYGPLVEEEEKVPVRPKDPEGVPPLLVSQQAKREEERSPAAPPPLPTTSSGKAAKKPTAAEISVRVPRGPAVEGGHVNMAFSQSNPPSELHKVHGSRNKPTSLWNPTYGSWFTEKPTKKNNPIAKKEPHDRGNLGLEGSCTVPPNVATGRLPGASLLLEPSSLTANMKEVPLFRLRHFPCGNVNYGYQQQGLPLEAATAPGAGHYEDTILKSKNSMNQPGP
# T1 sequence (Q96SW2 whole entry partner, the tested form may be a part): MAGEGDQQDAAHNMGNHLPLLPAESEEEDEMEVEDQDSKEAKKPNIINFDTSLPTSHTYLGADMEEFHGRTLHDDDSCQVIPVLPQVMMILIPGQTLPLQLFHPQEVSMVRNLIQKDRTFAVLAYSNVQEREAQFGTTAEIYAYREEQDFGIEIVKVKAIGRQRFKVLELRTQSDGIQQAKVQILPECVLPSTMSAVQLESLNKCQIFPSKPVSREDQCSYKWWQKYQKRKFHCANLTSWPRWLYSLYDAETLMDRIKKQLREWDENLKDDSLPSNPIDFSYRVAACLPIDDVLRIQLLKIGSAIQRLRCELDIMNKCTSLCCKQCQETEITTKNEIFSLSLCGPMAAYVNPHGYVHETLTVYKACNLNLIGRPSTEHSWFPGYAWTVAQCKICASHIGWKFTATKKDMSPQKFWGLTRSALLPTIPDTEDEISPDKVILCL
Compound,Degradation of substrate protein ALK (substrate protein remaining %) (ALK),inhibition at 0.01 µM [1] [%],inhibition at 0.5 µM [1] [%],inhibition at 0.01 µM ([2]; 10 nM) [%],inhibition at 0.5 µM [2] [%],"inhibition at 0.01 µM ([3]; TMD8, 10 nM) [%]",inhibition at 0.5 µM [3] [%],Degradation of substrate protein AR (substrate protein remaining %) (AR),"Inhibition Rate at 10 nM (%) ([2]; 10 nM, 96 hours, 0.01 µM)","Inhibition Rate at 10 nM (%) ([3]; TMD8, 10 nM, 96 hours, 0.01 µM)"
"N#Cc1ccc(O[C@H]2CC[C@H](NC(=O)c3ccc(N4CCC(CN5C6CCC5CN(c5ccc7c(c5)C(=O)N(N5CCC(=O)NC5=O)C7=O)C6)CC4)nn3)CC2)cc1Cl [GT-05824, N-((1r,4r)-4-(3-chloro-4-cyanophenoxy)cyclohexyl)-6-(4-((3-(2-(2,4-dioxotetrahydropyrimidin-1(2H)-yl)-1,3-dioxoisoindolin-5-yl)-3,8-diazabicyclo[3.2.1]octan-8-yl)methyl)piperidin-1-yl)pyridazine-3-carboxamide]",,5 to 10,30 to 40,10 to 15,30 to 40,15 to 20,40 to 60,A (0%≤substrate protein remaining %≤80%),,
"N#Cc1ccc(O[C@H]2CC[C@H](NC(=O)c3ccc(N4CCC(CN5CC6CCC(C5)N6c5ccc6c(c5)C(=O)N(N5CCC(=O)NC5=O)C6=O)CC4)nn3)CC2)cc1Cl [GT-05229, N-((1r,4r)-4-(3-chloro-4-cyanophenoxy)cyclohexyl)-6-(4-((8-(2-(2,4-dioxotetrahydropyrimidin-1(2H)-yl)-1,3-dioxoisoindolin-5-yl)-3,8-diazabicyclo[3.2.1]octan-3-yl)methyl)piperidin-1-yl)pyridazine-3-carboxamide]",,20 to 30,40 to 60,30 to 40,60 to 80,40 to 60,60 to 80,A (0%≤substrate protein remaining %≤80%),,
"N#Cc1ccc(O[C@H]2CC[C@H](NC(=O)c3ccc(N4CCC(CN5C6CC5CN(c5ccc7c(c5)C(=O)N(N5CCC(=O)NC5=O)C7=O)C6)CC4)nn3)CC2)cc1Cl [GT-05821, N-((1r,4r)-4-(3-chloro-4-cyanophenoxy)cyclohexyl)-6-(4-((3-(2-(2,4-dioxotetrahydropyrimidin-1(2H)-yl)-1,3-dioxoisoindolin-5-yl)-3,6-diazabicyclo[3.1.1]heptan-6-yl)methyl)piperidin-1-yl)pyridazine-3-carboxamide]",,10 to 15,20 to 30,15 to 20,30 to 40,15 to 20,40 to 60,A (0%≤substrate protein remaining %≤80%),,
"CC1(C)[C@H](NC(=O)c2ccc(N3CCC(CN4CCN(c5cc(F)c6c(c5)C(=O)N(N5CCC(=O)NC5=O)C6=O)CC4)CC3)nc2)C(C)(C)[C@H]1Oc1ccc(C#N)c(Cl)c1 [GT-05346, N-((1r,3r)-3-(3-chloro-4-cyanophenoxy)-2,2,4,4-tetramethylcyclobutyl)-6-(4-((4-(2-(2,4-dioxotetrahydropyrimidin-1(2H)-yl)-7-fluoro-1,3-dioxoisoindolin-5-yl)piperazin-1-yl)methyl)piperidin-1-yl)nicotinamide]",,0 to 5,20 to 30,15 to 20,20 to 30,15 to 20,35 to 40,A (0%≤substrate protein remaining %≤80%),,
"CC1(C)[C@H](NC(=O)c2ccc(N3CCC(CN4CCN(c5ccc6c(c5)C(=O)N(N5CCC(=O)NC5=O)C6=O)CC4)CC3)nc2)C(C)(C)[C@H]1Oc1ccc(C#N)c(Cl)c1 [GT-05301, N-((1r,3r)-3-(3-chloro-4-cyanophenoxy)-2,2,4,4-tetramethylcyclobutyl)-6-(4-((4-(2-(2,4-dioxotetrahydropyrimidin-1(2H)-yl)-1,3-dioxoisoindolin-5-yl)piperazin-1-yl)methyl)piperidin-1-yl)nicotinamide]",,10 to 15,20 to 30,,30 to 40,,40 to 60,A (0%≤substrate protein remaining %≤80%),IFb5 (15% ≤ IFb5 < 20%),IFa6 (25% ≤ IFa6 < 30%)

# Continued, in another order:
Degradation of substrate protein ALK (substrate protein remaining %) (ALK),Compound,inhibition at 0.01 µM [1] [%],inhibition at 0.5 µM [1] [%],inhibition at 0.01 µM ([2]; 10 nM) [%],inhibition at 0.5 µM [2] [%],"inhibition at 0.01 µM ([3]; TMD8, 10 nM) [%]",inhibition at 0.5 µM [3] [%],Degradation of substrate protein AR (substrate protein remaining %) (AR),"Inhibition Rate at 10 nM (%) ([2]; 10 nM, 96 hours, 0.01 µM)","Inhibition Rate at 10 nM (%) ([3]; TMD8, 10 nM, 96 hours, 0.01 µM)"
A (0%≤substrate protein remaining %≤80%),"COc1cc(N2CCC(CN3CC4CCC(C3)N4c3ccc4c(c3)C(=O)N(N3CCC(=O)NC3=O)C4=O)CC2)ccc1Nc1ncc(Cl)c(Nc2ccccc2P(C)(C)=O)n1 [GT-08530, 5-(3-((1-(4-((5-chloro-4-((2-(dimethylphosphoryl)phenyl)amino)pyrimidin-2-yl)amino)-3-methoxyphenyl)piperidin-4-yl)methyl)-3,8-diazabicyclo[3.2.1]octan-8-yl)-2-(2,4-dioxotetrahydropyrimidin-1(2H)-yl)isoindoline-1,3-dione]",,,,,,,,,
A (0%≤substrate protein remaining %≤80%),"CCc1cc2c(cc1N1CCC(N3CCN(Cc4ccc5c(c4)C(=O)N(N4CCC(=O)NC4=O)C5=O)CC3)CC1)C(C)(C)c1[nH]c3cc(C#N)ccc3c1C2=O [GT-04661, 8-(4-(4-((2-(2,4-dioxotetrahydropyrimidin-1(2H)-yl)-1,3-dioxoisoindolin-5-yl)methyl)piperazin-1-yl)piperidin-1-yl)-9-ethyl-6,6-dimethyl-11-oxo-6,11-dihydro-5H-benzo[b]carbazole-3-carbonitrile]",,,,,,,,,
